Target: T1, PMN elastase (Homo sapiens, UniProt P08246)
T1 construct: The elastase was isolated from human leukocytes; from tissue; host or cells: human leukocytes
T1 sequence (P08246 30-247 limits assumed): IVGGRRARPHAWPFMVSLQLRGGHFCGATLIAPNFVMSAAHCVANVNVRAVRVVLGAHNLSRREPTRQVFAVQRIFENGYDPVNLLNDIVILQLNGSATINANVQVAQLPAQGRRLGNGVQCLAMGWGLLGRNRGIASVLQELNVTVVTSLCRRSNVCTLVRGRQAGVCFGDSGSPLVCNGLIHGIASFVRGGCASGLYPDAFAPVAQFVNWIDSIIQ
Test: Assay for Elastase from Polymorphonuclear Granulocytes (PMN Elastase)
Type: biochemical
Set-up: key to inhibiting effect in PMN elastase assay (inactive): Substances which showed no inhibiting effect at the maximum concentration of 100 μg/ml were defined as inactive
Settings: for IC50: 1 hour preincubation with enzyme, substrate MeO-Suc-Ala-Ala-Pro-Val-pNA, 15 minutes, 405 nm, maximum 100 μg/ml, read-out: IC50 (inhibiting effect on PMN elastase) (converted); for inhibiting effect on PMN elastase, comparison in words: compared with manumycin / compounds (1) to (3)
Description: The elastase was isolated from human leukocytes by the method described by Engelbrecht et al. (Hoppe-Seyler's Physiol. Chem. 363, pp. 305-315, 1982). The substrate used was the MeO-Suc-[…] (Calbiochem) described by Nakajima et al. (J. Biol. Chem. 254, pp. 4027-4032, 1979). The Liberation of the p-nitroaniline from the substrate in 15 minutes was measured as the increase in absorption at 405 nm in a spectrophotometer. This absorption was defined as 100% activity of the enzyme PMN elastase. The inhibitors of PMN elastase were preincubated in increasing concentrations up to a maximum of 100 μg/ml with the enzyme for 1 hour, and the enzyme reaction was started with the substrate. The IC50 was defined as that inhibitor concentration which inhibits 50% of the enzyme activity.

Structure (SMILES) | inhibition of leukocyte elastase, in words | IC50 [µM] | inhibiting effect in PMN elastase assay (inactive) (maximum concentration 100 μg/ml, "--" in Table 2) | inhibiting effect on PMN elastase, comparison in words
CCCC[C@@H](C)/C=C(C)/C=C(\C)C(=O)Nc1cc(/C=C/C=C/C=C/C(=O)NC2=C(O)CCC2=O)c(O)cc1O [Compound (1)] | inhibit leukocyte elastase | 4.68 |  | 
CCCC[C@@H](C)/C=C(C)/C=C(\C)C(=O)Nc1cc(/C=C/C=C/C=C/C(=O)NC2=C(O)CCC2=O)ccc1O [Compound (2)] | inhibit leukocyte elastase | 5.98 |  | 
CCCC[C@@H](C)/C=C(C)/C=C(\C)C(=O)Nc1cccc(/C=C/C=C/C=C/C(=O)NC2=C(O)CCC2=O)c1 [Compound (3)] | inhibit leukocyte elastase | 7.16 |  | 
Nc1cccc(/C=C/C=C/C=C/C(=O)NC2=C(O)CCC2=O)c1 [Compound (4)] |  |  | inactive | 

Second part, led by results:

inhibition of leukocyte elastase, in words | IC50 [µM] | inhibiting effect in PMN elastase assay (inactive) (maximum concentration 100 μg/ml, "--" in Table 2) | Structure (SMILES) | inhibiting effect on PMN elastase, comparison in words
inhibit leukocyte elastase | 135 |  | Nc1ccc(/C=C/C=C/C=C/C(=O)NC2=C(O)CCC2=O)cc1 [Compound (5)] | distinctly weaker inhibiting effect
 | 7.99 |  | CCCCC(C)C=C(C)C=C(C)C(=O)NC1=CC(O)(C=CC=CC=CC(=O)NC2=C(O)CCC2=O)C2OC2C1=O (stereo not drawn) [Manumycin, manumycin] | comparable to that of the compounds (1) to (3)

Reference: patent US5079263A, “Manumycin derivatives and the use thereof” (Behringwerke Aktiengesellschaft, priority 1987, dated 1992)
